# From US8252895B2, “Cyclic peptide compounds” (Astellas Pharma Inc., priority 2005, dated 2012)
# Square brackets hold non-standard residues; d marks the D form. Peptide text beside a SMILES is read from it. * marks the point of attachment. ξ: configuration not given here. MeBmt = C/C=C/C[C@@H](C)[C@@H](O)[C@H](NC)C(=O)O; NMeIle(3ξ) = CCC(C)[C@H](NC)C(=O)O; NMeThr(3ξ) = CN[C@H](C(=O)O)C(C)O; NMePhg = CN[C@H](C(=O)O)c1ccccc1; NMeT = CN[C@H](C(=O)O)[C@@H](C)O; NMeL = CN[C@@H](CC(C)C)C(=O)O; dNMeAbu = CC[C@@H](NC)C(=O)O; NMeV = CN[C@H](C(=O)O)C(C)C; dNMeS = CN[C@H](CO)C(=O)O; dNMeA = CN[C@H](C)C(=O)O; Sar = CNCC(=O)O; tBu = CC(C)(C)*
# Biological target: HCV replicon
# Assay type: cell-based, hepatitis C virus
# Conditions: HCV replicon cells, luciferase activity two days after addition of compound, 50% of control (DMSO only)
# Protocol: It is thought that the replication mechanism of the subgenomic HCV RNA in these cell lines is extremely similar to the replication of full length HCV RNA genome in hepatic cells infected with HCV.
# The inhibitory activity of the test compounds against the replication of HCV replicon was evaluated by quantified the activity of luciferase, a reporter gene product encoded in the replicon system reported by Yokota et al., EMBO 4: 602-608 (2003). The enzyme assay was carried out according to the technical manual of the Steady-Glo® luciferase assay system (Promega). The replicon assay was carried out with the modified method reported by Lohmann et al., Science 285: 110 (1999). The details are described in the following.
# 6×10^3 HCV replicon cells in D-MEM medium containing 5% fetal bovine serum were seeded in each well of a 96-well microtiter plate (Corning Inc.). After the cells were incubated at 37° C. for 16 hours in 5% CO2, the test compound was added.
# After cultivation for two more days, the culture medium was removed and 25 μl of Glo Lysis buffer was added to each well and incubated for 5 minutes. Allowing lysis to occur, 25 μl of Steady-Glo® assay reagent was added to each well. After incubation for 5 minutes, the luminescence was measured with a luminometer, Mithras LB940 (BERTHOLD TECHNOLOGIES GmbH & Co.KG) following the manufacturer's instructions.
# The luciferase activities in replicon cells treated at each concentrations of the compound were employed for the calculation of EC50 value of the each compound, which gave the compound concentration indicating 50% enzyme activity level to the control (no drug group, containing only DMSO).
row,Compound,HCV replicon replication inhibitory activity: EC50 [µg/mL]
1,C/C=C/C[C@@H](C)[C@@H](O)[C@H]1C(=O)N[C@@H]([C@@H](C)O)C(=O)N(C)[C@H](C)C(=O)N(C)[C@@H]([C@@H](C)OC)C(=O)N[C@@H](CC(C)C)C(=O)N(C)[C@@H](CC(C)C)C(=O)N[C@@H](C)C(=O)N[C@H](C)C(=O)N(C)[C@@H](CC(C)C)C(=O)N[C@@H](CC(C)C)C(=O)N(C)[C@@H](C(C)C)C(=O)N1C [Example 32] (cyclo(A[dA][NMeL]L[NMeV][MeBmt]T[dNMeA][NMeT](Me)L[NMeL])),<0.5
2,C/C=C/C[C@@H](C)[C@@H](O)[C@H]1C(=O)N[C@@H]([C@@H](C)O)C(=O)N(C)[C@H](C)C(=O)N(C)[C@@H](c2ccccc2)C(=O)N[C@@H](CC(C)C)C(=O)N(C)[C@@H](CC(C)C)C(=O)N[C@@H](C)C(=O)N[C@H](C)C(=O)N(C)[C@@H](CC(C)C)C(=O)N[C@@H](CC(C)C)C(=O)N(C)[C@@H](C(C)C)C(=O)N1C [Example 15] (cyclo(A[dA][NMeL]L[NMeV][MeBmt]T[dNMeA][NMePhg]L[NMeL])),<0.5
3,"C/C=C/C[C@@H](C)[C@@H](O)[C@H]1C(=O)N[C@@H]([C@@H](C)O)C(=O)N(C)[C@H](C)C(=O)N(C)[C@@H](C(C)O)C(=O)N[C@@H](CC(C)C)C(=O)N(C)[C@@H](CC(C)C)C(=O)N[C@@H](C)C(=O)N[C@H](C)C(=O)N(C)[C@@H](CC(C)C)C(=O)N[C@@H](CC(C)C)C(=O)N(C)[C@@H](C(C)C)C(=O)N1C (stereo partly drawn) [Example 12, (3R,6S,9S,12S,15S,18S,21R,24S,27S,30S,33S)-6-[(1R)-1-hydroxyethyl]-33-(1-hydroxyethyl)-9-[(1R,2R,4E)-1-hydroxy-2-methyl-4-hexen-1-yl]-15,18,27,30-tetraisobutyl-12-isopropyl-1,3,4,10,13,19,21,24,28-nonamethyl-1,4,7,10,13,16,19,22,25,28,31-undecaazacyclotritriacontane-2,5,8,11,14,17,20,23,26,29,32-undecone] (cyclo(A[dA][NMeL]L[NMeV][MeBmt]T[dNMeA][NMeThr(3ξ)]L[NMeL]))",<0.5
4,"C/C=C/C[C@@H](C)[C@@H](O)[C@H]1C(=O)N[C@@H]([C@@H](C)O)C(=O)N(C)[C@H](C)C(=O)N(C)[C@@H](C(C)OC(C)(C)C)C(=O)N[C@@H](CC(C)C)C(=O)N(C)[C@@H](CC(C)C)C(=O)N[C@@H](C)C(=O)N[C@H](C)C(=O)N(C)[C@@H](CC(C)C)C(=O)N[C@@H](CC(C)C)C(=O)N(C)[C@@H](C(C)C)C(=O)N1C (stereo partly drawn) [Example 25, (3R,6S,9S,12S,15S,18S,21R,24S,27S,30S,33S)-33-(1-tert-butoxyethyl)-6-[(1R)-1-hydroxyethyl]-9-[(1R,2R,4E)-1-hydroxy-2-methyl-4-hexen-1-yl]-15,18,27,30-tetraisobutyl-12-isopropyl-1,3,4,10,13,19,21,24,28-nonamethyl-1,4,7,10,13,16,19,22,25,28,31-undecaazacyclotritriacontane-2,5,8,11,14,17,20,23,26,29,32-undecone] (cyclo(A[dA][NMeL]L[NMeV][MeBmt]T[dNMeA][NMeThr(3ξ)](tBu)L[NMeL]))",<0.5
5,C/C=C/C[C@@H](C)[C@@H](O)[C@H]1C(=O)N[C@@H]([C@@H](C)O)C(=O)N(C)[C@H](COC)C(=O)N(C)[C@@H]([C@@H](C)OC)C(=O)N[C@@H](CC(C)C)C(=O)N(C)[C@@H](CC(C)C)C(=O)N[C@@H](C)C(=O)N[C@H](C)C(=O)N(C)[C@@H](CC(C)C)C(=O)N[C@@H](CC(C)C)C(=O)N(C)[C@@H](C(C)C)C(=O)N1C [Example 9] (cyclo(A[dA][NMeL]L[NMeV][MeBmt]T[dNMeS](Me)[NMeT](Me)L[NMeL])),<0.5
6,"C/C=C/C[C@@H](C)[C@@H](O)[C@H]1C(=O)N[C@@H]([C@@H](C)O)C(=O)N(C)CC(=O)N(C)[C@@H](C(C)OC(C)(C)C)C(=O)N[C@@H](CC(C)C)C(=O)N(C)[C@@H](CC(C)C)C(=O)N[C@@H](C)C(=O)N[C@H](C)C(=O)N(C)[C@@H](CC(C)C)C(=O)N[C@@H](CC(C)C)C(=O)N(C)[C@@H](C(C)C)C(=O)N1C (stereo partly drawn) [Example 52, (3S,6S,9S,12R,15S,18S,21S,24S,30S,33S)-24-(1-tert-butoxyethyl)-30-[(1R)-1-hydroxyethyl]-33-[(1R,2R,4E)-1-hydroxy-2-methyl-4-hexen-1-yl]-6,9,18,21-tetraisobutyl-3-isopropyl-1,4,10,12,15,19,25,28-octamethyl-1,4,7,10,13,16,19,22,25,28,31-undecaazacyclotritriacontane-2,5,8,11,14,17,20,23,26,29,32-undecone] (cyclo(A[dA][NMeL]L[NMeV][MeBmt]T[Sar][NMeThr(3ξ)](tBu)L[NMeL]))",<0.5
7,"C/C=C/C[C@@H](C)[C@@H](O)[C@H]1C(=O)N[C@@H]([C@@H](C)O)C(=O)N(C)[C@H](C)C(=O)N(C)[C@@H](C(C)CC)C(=O)N[C@@H](CC(C)C)C(=O)N(C)[C@@H](CC(C)C)C(=O)N[C@@H](C)C(=O)N[C@H](C)C(=O)N(C)[C@@H](CC(C)C)C(=O)N[C@@H](CC(C)C)C(=O)N(C)[C@@H](C(C)C)C(=O)N1C (stereo partly drawn) [Example 14, (3R,6S,9S,12S,15S,18S,21R,24S,27S,30S,33S)-33-sec-butyl-6-[(1R)-1-hydroxyethyl]-9-[(1R,2R,4E)-1-hydroxy-2-methyl-4-hexen-1-yl]-15,18,27,30-tetraisobutyl-12-isopropyl-1,3,4,10,13,19,21,24,28-nonamethyl-1,4,7,10,13,16,19,22,25,28,31-undecaazacyclotritriacontane-2,5,8,11,14,17,20,23,26,29,32-undecone] (cyclo(A[dA][NMeL]L[NMeV][MeBmt]T[dNMeA][NMeIle(3ξ)]L[NMeL]))",<0.5
8,C/C=C/C[C@@H](C)[C@@H](O)[C@H]1C(=O)N[C@@H]([C@@H](C)O)C(=O)N(C)[C@H](CC)C(=O)N(C)[C@@H]([C@@H](C)OC)C(=O)N[C@@H](CC(C)C)C(=O)N(C)[C@@H](CC(C)C)C(=O)N[C@@H](C)C(=O)N[C@H](C)C(=O)N(C)[C@@H](CC(C)C)C(=O)N[C@@H](CC(C)C)C(=O)N(C)[C@@H](C(C)C)C(=O)N1C [Example 16] (cyclo(A[dA][NMeL]L[NMeV][MeBmt]T[dNMeAbu][NMeT](Me)L[NMeL])),<0.5

# Test system: Human Immunodeficiency Virus Type 1 (HIV-1)
# Conditions: M. Thali et al., Nature 372, 363-365 (1994); cited from earlier work
row,Compound,anti-HIV activity
1,Cyclosporin A,anti-HIV activity

# Test system: HCV
# Conditions: K. Inoue et al., 6th International Symposium on Hepatitis C and Related Virus (2000); cited from earlier work
row,Compound,anti-HCV activity
1,Cyclosporin A,anti-HCV activity
